System: male spontaneously hypertensive rats
Experiment: Decrease in systolic blood pressure in spontaneously hypertensive rats after intravenous bolus injection, indirect (tail-cuff) method
Type: in vivo, rat
Conditions: for Decrease in systolic blood pressure (mmHg) time after administration (hour) 0.5: 0.5 hour after administration; for Decrease in systolic blood pressure (mmHg) time after administration (hour) 4: 4 hours after administration
Procedure: As test animals, four male spontaneously hypertensive rats (weight 400 to 440 g) that were sufficiently adapted for feeding and in which hypertension was confirmed were used.
Physiological saline aqueous solution containing 2.5% Nicolle and 2.5% ethanol of sample was intravenously administered by bolus injection at a dose of 1 ml per 1 kg of body weight. Systolic blood pressure after administration was measured by the indirect (tail-cuff) method.

SMILES	Decrease in systolic blood pressure (mmHg) time after administration (hour) 0.5 (dose 10 mg/kg i.v. bolus)	Decrease in systolic blood pressure (mmHg) time after administration (hour) 4 (dose 10 mg/kg i.v. bolus)	further results
CC(C)(C)C(=O)Nc1ccc(C=CCN2CCC(=C3c4ccccc4C=Cc4ccccc43)CC2)cc1.Cl [Example 379]			Decrease in systolic blood pressure (mmHg) time after administration (hour) 0.5 (dose 1 mg/kg i.v. bolus): −118 mmHg; Decrease in systolic blood pressure (mmHg) time after administration (hour) 4 (dose 1 mg/kg i.v. bolus): −59 mmHg
Cl.OC1CCCC(CCCCN2CCC(=C3c4ccccc4C=Cc4ccccc43)CC2)C1 (stereo not shown) [Example 300, 1-(1-(3-Hydroxyoxy)cyclohexyl)-4-(4-(5H-dibenzo[a,d]cyclohepten-5-ylidene)-1-piperidinyl)butane hydrochloride]	−97 mmHg	−22 mmHg	
COc1ccc(C(=O)CCCCN2CCC(=C3c4ccccc4C=Cc4ccccc43)CC2)cc1OC.Cl [Example 169, 5-(4-(5H-Dibenzo[a,d]cyclohepten-5-ylidene)-1-piperidinyl)-3′,4′-dimethoxyvalerophenone hydrochloride]	−130 mmHg	−4 mmHg	
C1=Cc2ccccc2C(=C2CCN(CCCCc3ccccc3)CC2)c2ccccc21.Cl [Example 15, 4-(4-(5H-Dibenzo[a,d]cyclohepten-5-ylidene)-1-piperidinyl)-1-phenylbutane hydrochloride]	−130 mmHg	−136 mmHg	
Cl.O=[N+]([O-])c1ccccc1C=CCN1CCC(=C2c3ccccc3C=Cc3ccccc32)CC1 [Example 302, 4-(5H-Dibenzo[a,d]cyclohepten-5-ylidene)-1-(2-nitrocinnamyl)piperidinyl hydrochloride]	−83 mmHg	−41 mmHg	
Cl.O=[N+]([O-])c1ccc(CCCCN2CCC(=C3c4ccccc4C=Cc4ccccc43)CC2)cc1 [Example 196, 4-(5H-Dibenzo[a,d]cyclohepten-5-ylidene)-1-(4-(4-nitrophenyl)butyl)piperidine hydrochloride]	−145 mmHg	−81 mmHg	
C1=Cc2ccccc2C(=C2CCN(CCCc3ccncc3)CC2)c2ccccc21.Cl.Cl [Example 289, 3-(4-(5H-Dibenzo[a,d]cyclohepten-5-ylidene)-1-piperidinyl)-1-(4-pyridyl)propane dihydrochloride]			Decrease in systolic blood pressure (mmHg) time after administration (hour) 0.5 (dose 3 mg/kg i.v. bolus): −20 mmHg; Decrease in systolic blood pressure (mmHg) time after administration (hour) 4 (dose 3 mg/kg i.v. bolus): 10 mmHg
COc1ccc(C(=O)CCCN2CCC(=C3c4ccccc4C=Cc4ccccc43)CC2)c(OC)c1OC.Cl [Example 171, 4-(4-(5H-Dibenzo[a,d]cyclohepten-5-ylidene)-1-piperidinyl)-2′,3′,4′-trimethoxybutyrophenone hydrochloride]	−122 mmHg	−8 mmHg	
Cl.OCC1(CCCCN2CCC(=C3c4ccccc4C=Cc4ccccc43)CC2)CCCCC1 [Example 272, 1-(4-(4-(5H-Dibenzo[a,d]cyclohepten-5-ylidene)-1-piperidinyl)-1-butyl)-1-hydroxymethylcyclohexane hydrochloride]	−76 mmHg	−3 mmHg	
CCCCCCCCN1CCC(=C2c3ccccc3C=Cc3ccccc32)CC1.Cl [Example 2, 4-(5H-Dibenzo[a,d]cyclohepten-5-ylidene)-1-octylpiperidine hydrochloride]	−125 mmHg	−34 mmHg	
C1=Cc2ccccc2C(=C2CCN(CCCOc3ccccc3)CC2)c2ccccc21.Cl [Example 20, 3-(4-(5H-Dibenzo[a,d]cyclohepten-5-ylidene)-1-piperidinyl)-1-phenoxypropane hydrochloride]	−37 mmHg	2 mmHg	
Cl.N#CC(CCCCl)(CCCN1CCC(=C2c3ccccc3C=Cc3ccccc32)CC1)c1ccccc1 (stereo not shown) [Example 52, 2-(3-Chloropropyl)-5-(4-(5H-dibenzo[a,d]cyclohepten-5-ylidene)-1-piperidinyl)-2-phenylvaleronitrile hydrochloride]	−23 mmHg	−9 mmHg	
CCCCCCN1CCC(=C2c3ccccc3C=Cc3ccccc32)CC1.Cl [Example 1, 4-(5H-Dibenzo[a,d]cyclohepten-5-ylidene)-1-hexylpiperidine hydrochloride]	−67 mmHg	1 mmHg	
C1=Cc2ccccc2C(=C2CCN(CCCOC3CCCCC3)CC2)c2ccccc21.Cl [Example 218, Cyclohexyl 3-(4-(5H-Dibenzo[a,d]cyclohpetan-5-ylidene)-1-piperidinyl)propylether hydrochloride]	−97 mmHg	−11 mmHg	
Cl.Nc1ccccc1C=CCN1CCC(=C2c3ccccc3C=Cc3ccccc32)CC1 [Example 303, 1-(2-Aminocinnamyl)-4-(5H-dibenzo[a,d]cyclohepten-5-ylidene)-1-piperidine hydrochloride]			Decrease in systolic blood pressure (mmHg) time after administration (hour) 0.5 (dose 3 mg/kg i.v. bolus): −90 mmHg; Decrease in systolic blood pressure (mmHg) time after administration (hour) 4 (dose 3 mg/kg i.v. bolus): −19 mmHg
COC(=O)c1ccccc1C=CCN1CCC(=C2c3ccccc3C=Cc3ccccc32)CC1.Cl [Example 374, 4-(5H-Dibenzo[a,d]cyclohepten-5-ylidene)-1-(2-methoxycarbonylcinnamyl)piperidine hydrochloride]			Decrease in systolic blood pressure (mmHg) time after administration (hour) 0.5 (dose 3 mg/kg i.v. bolus): −119 mmHg; Decrease in systolic blood pressure (mmHg) time after administration (hour) 4 (dose 3 mg/kg i.v. bolus): 11 mmHg
C1=Cc2ccccc2C(=C2CCN(CCCCCCCCC3CCCCC3)CC2)c2ccccc21.Cl [Example 156, 1-Cyclohexyl-8-(4-(5H-dibenzo[a,d]cyclohepten-5-ylidene)-1-piperidinyl)octane hydrochloride]	−110 mmHg	−42 mmHg	
O=C(Cc1ccc(F)cc1)N1CCC(=C2c3ccccc3C=Cc3ccccc32)CC1 [Example 191, 4-(5H-Dibenzo[a,d]cyclohepten-5-ylidene)-1-(2-(4-fluorophenyl)acetyl)piperidine]	−29 mmHg	−20 mmHg	
Cl.O=C1Cc2ccccc2C(=C2CCN(CCCCC3CCCCC3)CC2)c2ccsc21 [Example 180]	−25 mmHg	−24 mmHg	
Cc1ccccc1CN1CCC(=C2c3ccccc3C=Cc3ccccc32)CC1.Cl [Example 131, 4-(5H-Dibenzo[a,d]cyclohepten-5-ylidene)-1-(2-methylbenyl)piperidine hydrochloride]	−116 mmHg	2 mmHg	
Cl.O=C(CCCN1CCC(=C2c3ccccc3C=Cc3ccccc32)CC1)N1CCC(O)CC1 [Example 216, 1-(4-(4-(5H-Dibenzo[a,d]cyclohepten-5-ylidene)-1-piperidinyl)butanoyl)-4-hydroxypiperidine hydrochloride]			Decrease in systolic blood pressure (mmHg) time after administration (hour) 0.5 (dose 3 mg/kg i.v. bolus): −2 mmHg; Decrease in systolic blood pressure (mmHg) time after administration (hour) 4 (dose 3 mg/kg i.v. bolus): −27 mmHg
CCCCC(O)(CCCN1CCC(=C2c3ccccc3C=Cc3ccccc32)CC1)c1ccc(OC)c(OC)c1.Cl (stereo not shown) [Example 207, 1-butyl-4-(4-(5H-dibenzo[a,d]cyclohepten-5-ylidene)-1-piperidinyl)-1-(3,4-dimethoxy)phenyl-1-hydroxybutane hydroxybutane hydrochloride]	−98 mmHg	−43 mmHg	
COC(=O)c1cccc(C=CCN2CCC(=C3c4ccccc4C=Cc4ccccc43)CC2)c1.Cl [Example 375, 4-(5H-Dibenzo[a,d]cyclohepten-5-ylidene)-1-(3-methoxycarbonylcinnamyl)piperidine hydrochloride]			Decrease in systolic blood pressure (mmHg) time after administration (hour) 0.5 (dose 1 mg/kg i.v. bolus): −126 mmHg; Decrease in systolic blood pressure (mmHg) time after administration (hour) 4 (dose 1 mg/kg i.v. bolus): −70 mmHg
CCCC(=O)Nc1ccc(C=CCN2CCC(=C3c4ccccc4C=Cc4ccccc43)CC2)cc1.Cl [Example 381, 1-(4-Butanoylaminocinnamyl)-4-(5H-Dibenzo[a,d]cyclohepten-5-ylidene)piperidine hydrochloride]			Decrease in systolic blood pressure (mmHg) time after administration (hour) 0.5 (dose 3 mg/kg i.v. bolus): −136 mmHg
COc1cc2nc(N3CCC(=C4c5ccccc5C=Cc5ccccc54)CC3)nc(N)c2cc1OC.Cl.Cl [Example 266, 2-(4-(5H-Dibenzo[a,d]cyclohepten-5-ylidene)-1-piperidinyl)-4-amino-6,7-dimethoxyquinazoline dihydrochloride]	−133 mmHg	−77 mmHg	

— patent USRE38257E1, “Piperdine derivatives and hypotensives containing the same” (Ajinomoto Co., Inc., priority 1988, dated 2003)
